According to patent publication US20240316022A1 (TYRA BIOSCIENCES, INC., priority 2021, published 2024):

Experiments:
Test in all cases: Kinase binding assay (kinase-tagged T7 phage, qPCR), Kd
FGFR1 = molecular target: T1, FGFR1 (Homo sapiens, UniProt P11362); settings: read-out: FGFR1 (Kd nM)
T1 construct: made in house; host or cells: E. coli derived from BL21, infected with T7 phage

FGFR2 = molecular target: T2, FGFR2 (Homo sapiens, UniProt P21802); settings: read-out: FGFR2 (Kd nM)
T2 construct: made in house; host or cells: E. coli derived from BL21, infected with T7 phage
T2 sequence (P21802 22-821): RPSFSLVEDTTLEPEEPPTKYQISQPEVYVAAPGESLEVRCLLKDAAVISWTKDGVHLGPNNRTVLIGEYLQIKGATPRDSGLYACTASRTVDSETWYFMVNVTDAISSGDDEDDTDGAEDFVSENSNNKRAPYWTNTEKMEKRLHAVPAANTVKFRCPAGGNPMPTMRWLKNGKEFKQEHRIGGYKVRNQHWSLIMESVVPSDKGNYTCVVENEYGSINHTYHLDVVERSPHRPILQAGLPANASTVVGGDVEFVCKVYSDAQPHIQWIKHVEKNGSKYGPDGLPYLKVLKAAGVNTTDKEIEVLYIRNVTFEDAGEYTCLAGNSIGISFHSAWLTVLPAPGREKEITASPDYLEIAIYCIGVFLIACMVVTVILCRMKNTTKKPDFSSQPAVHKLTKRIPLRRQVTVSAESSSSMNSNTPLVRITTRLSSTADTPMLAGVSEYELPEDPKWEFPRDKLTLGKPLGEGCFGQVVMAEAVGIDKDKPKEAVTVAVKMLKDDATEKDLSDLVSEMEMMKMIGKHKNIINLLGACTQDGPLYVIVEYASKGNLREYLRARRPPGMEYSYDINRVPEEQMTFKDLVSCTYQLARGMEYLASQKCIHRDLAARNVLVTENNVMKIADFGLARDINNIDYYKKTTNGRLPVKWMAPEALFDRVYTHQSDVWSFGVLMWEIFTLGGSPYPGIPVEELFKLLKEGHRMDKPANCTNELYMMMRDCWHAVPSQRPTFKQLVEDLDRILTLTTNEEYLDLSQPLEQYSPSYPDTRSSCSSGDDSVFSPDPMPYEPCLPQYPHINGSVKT

FGFR4 = molecular target: T3, FGFR4 (Homo sapiens, UniProt P22455); settings: read-out: FGFR4 (Kd nM)
T3 construct: made in house; host or cells: E. coli derived from BL21, infected with T7 phage
T3 sequence (P22455 22-802): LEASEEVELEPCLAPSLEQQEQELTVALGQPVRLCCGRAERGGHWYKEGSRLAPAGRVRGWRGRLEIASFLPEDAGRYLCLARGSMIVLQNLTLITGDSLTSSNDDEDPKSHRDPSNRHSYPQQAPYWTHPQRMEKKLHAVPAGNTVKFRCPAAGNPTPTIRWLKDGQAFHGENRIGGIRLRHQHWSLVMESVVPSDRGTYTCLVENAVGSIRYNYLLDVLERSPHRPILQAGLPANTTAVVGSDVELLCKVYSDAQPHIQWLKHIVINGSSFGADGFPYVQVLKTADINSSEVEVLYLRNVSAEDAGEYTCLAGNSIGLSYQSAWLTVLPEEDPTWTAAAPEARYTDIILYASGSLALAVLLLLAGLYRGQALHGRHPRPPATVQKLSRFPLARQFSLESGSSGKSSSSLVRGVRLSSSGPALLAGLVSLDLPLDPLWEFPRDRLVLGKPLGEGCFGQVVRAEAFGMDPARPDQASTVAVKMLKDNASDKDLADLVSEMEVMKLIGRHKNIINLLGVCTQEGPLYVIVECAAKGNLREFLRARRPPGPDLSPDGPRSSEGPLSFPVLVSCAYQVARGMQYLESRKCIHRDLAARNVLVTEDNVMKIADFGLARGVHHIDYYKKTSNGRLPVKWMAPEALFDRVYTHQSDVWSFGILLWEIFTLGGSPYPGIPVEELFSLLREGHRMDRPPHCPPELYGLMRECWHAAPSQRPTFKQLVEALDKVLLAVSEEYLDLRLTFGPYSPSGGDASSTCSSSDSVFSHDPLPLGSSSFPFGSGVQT

FGFR3 = molecular target: T4, FGFR3 (Homo sapiens, UniProt P22607); settings: read-out: FGFR3 (Kd nM)
T4 construct: made in house; host or cells: E. coli derived from BL21, infected with T7 phage
T4 sequence (P22607 23-806): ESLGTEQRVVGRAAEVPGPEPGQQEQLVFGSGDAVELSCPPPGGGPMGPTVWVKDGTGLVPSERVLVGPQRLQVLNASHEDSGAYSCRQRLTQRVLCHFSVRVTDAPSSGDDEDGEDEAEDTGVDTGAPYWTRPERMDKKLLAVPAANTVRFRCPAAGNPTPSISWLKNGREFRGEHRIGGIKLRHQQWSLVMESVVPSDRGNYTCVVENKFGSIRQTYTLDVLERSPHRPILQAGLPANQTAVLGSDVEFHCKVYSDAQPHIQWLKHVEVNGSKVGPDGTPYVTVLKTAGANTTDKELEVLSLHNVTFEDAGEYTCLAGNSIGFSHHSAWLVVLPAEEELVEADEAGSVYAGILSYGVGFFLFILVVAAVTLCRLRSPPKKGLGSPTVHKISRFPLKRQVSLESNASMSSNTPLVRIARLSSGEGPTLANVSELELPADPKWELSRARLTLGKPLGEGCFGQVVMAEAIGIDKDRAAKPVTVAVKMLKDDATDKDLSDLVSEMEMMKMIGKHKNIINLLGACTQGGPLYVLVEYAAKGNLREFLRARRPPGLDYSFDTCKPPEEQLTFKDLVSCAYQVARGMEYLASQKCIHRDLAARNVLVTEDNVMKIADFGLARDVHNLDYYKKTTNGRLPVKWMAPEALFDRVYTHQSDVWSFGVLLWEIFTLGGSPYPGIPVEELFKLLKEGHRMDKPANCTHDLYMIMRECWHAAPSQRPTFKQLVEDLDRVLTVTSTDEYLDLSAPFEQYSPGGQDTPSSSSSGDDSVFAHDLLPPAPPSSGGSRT

T1 sequence (P11362 22-822): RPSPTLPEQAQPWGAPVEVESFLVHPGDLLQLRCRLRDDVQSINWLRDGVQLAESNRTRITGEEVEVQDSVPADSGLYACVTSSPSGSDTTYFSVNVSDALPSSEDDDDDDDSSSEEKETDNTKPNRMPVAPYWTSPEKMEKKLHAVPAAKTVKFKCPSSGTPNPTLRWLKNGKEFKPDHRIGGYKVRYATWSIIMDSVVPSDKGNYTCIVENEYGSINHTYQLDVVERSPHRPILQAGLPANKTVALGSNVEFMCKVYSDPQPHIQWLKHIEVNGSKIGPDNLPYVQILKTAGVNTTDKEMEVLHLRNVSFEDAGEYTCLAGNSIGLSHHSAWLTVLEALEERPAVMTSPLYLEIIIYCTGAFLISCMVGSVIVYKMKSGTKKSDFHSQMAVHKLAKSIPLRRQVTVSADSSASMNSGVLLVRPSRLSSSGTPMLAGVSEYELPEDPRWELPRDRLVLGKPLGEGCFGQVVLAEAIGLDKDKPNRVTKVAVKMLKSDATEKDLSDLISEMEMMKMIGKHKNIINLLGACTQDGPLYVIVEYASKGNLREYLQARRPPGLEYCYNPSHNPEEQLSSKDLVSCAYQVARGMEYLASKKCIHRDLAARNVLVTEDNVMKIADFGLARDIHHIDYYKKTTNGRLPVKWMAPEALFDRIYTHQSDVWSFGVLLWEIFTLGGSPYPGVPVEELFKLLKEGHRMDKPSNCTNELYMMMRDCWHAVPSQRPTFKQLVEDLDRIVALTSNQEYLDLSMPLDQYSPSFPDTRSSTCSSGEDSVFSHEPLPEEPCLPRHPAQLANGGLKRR

SMILES	Kd (FGFR1)	Kd (FGFR2)	Kd (FGFR4)	Kd (FGFR3)
Cc1cnnc(C)c1[C@@H](C)Oc1ccc2[nH]nc(-c3cc(C#N)cc(OC4CCOCC4)c3)c2c1 [Example 71, 3-[5-[(1R)-1-(3,5-dimethylpyridazin-4-yl)ethoxy]-1H-indazol-3-yl]-5-tetrahydropyran-4-yloxy-benzonitrile]	250 to 1000 nM	> 1000 nM	0.1 to 100 nM	250 to 1000 nM
CCOCCOc1cc(C#N)cc(-c2n[nH]c3ccc(O[C@H](C)c4c(C)cnnc4C)cc23)c1 [Example 73, 3-[5-[(1R)-1-(3,5-dimethylpyridazin-4-yl)ethoxy]-1H-indazol-3-yl]-5-(2-ethoxyethoxy)-benzonitrile]	> 1000 nM	250 to 1000 nM	0.1 to 100 nM	100 to 250 nM
COc1ncc(-c2n[nH]c3ccc(O[C@H](C)c4c(Cl)cncc4Cl)cc23)cc1C#N [Example 74, 5-[5-[(1R)-1-(3,5-dichloro-4-pyridyl)ethoxy]-1H-indazol-3-yl]-2-methoxy-pyridine-3-carbonitrile]	250 to 1000 nM	250 to 1000 nM	0.1 to 100 nM	0.1 to 100 nM
Cc1cnnc(C)c1[C@@H](C)Oc1ccc2[nH]nc(-c3cc(C#N)cc(OCC4CC4)c3)c2c1 [Example 78, 3-(cyclopropylmethoxy)-5-[5-[(1R)-1-(3,5-dimethylpyridazin-4-yl)ethoxy]-1H-indazol-3-yl]benzonitrile]	> 1000 nM	> 1000 nM	0.1 to 100 nM	250 to 1000 nM
COc1cc(-c2n[nH]c3ccc(O[C@H](C)c4c(Cl)cncc4Cl)cc23)cc(C#N)c1OC [Example 81, 5-[5-[(1R)-1-(3,5-dichloro-4-pyridyl)ethoxy]-1H-indazol-3-yl]-2,3-dimethoxy-benzonitrile]	> 1000 nM	> 1000 nM	0.1 to 100 nM	> 1000 nM
Cc1cnnc(C)c1[C@@H](C)Oc1ccc2[nH]nc(-c3cc(C#N)cc(C4CC4)c3)c2c1 [Example 84, 3-cyclopropyl-5-[5-[(1R)-1-(3,5-dimethyl-pyridazin-4-yl)ethoxy]-1H-indazol-3-yl]benzonitrile]	250 to 1000 nM	250 to 1000 nM	0.1 to 100 nM	0.1 to 100 nM
Cc1cnnc(C)c1[C@@H](C)Oc1ccc2[nH]nc(-c3cc(C#N)cc(C4CCCC4)c3)c2c1 [Example 86, 3-cyclopentyl-5-[5-[(1R)-1-(3,5-dimethylpyridazin-4-yl)ethoxy]-1H-indazol-3-yl]benzonitrile]	> 1000 nM	> 1000 nM	250 to 1000 nM	> 1000 nM

More lines, now with the values ahead:

Kd (FGFR1)	Kd (FGFR2)	Kd (FGFR4)	Kd (FGFR3)	SMILES
100 to 250 nM	100 to 250 nM	0.1 to 100 nM	0.1 to 100 nM	COCCOc1cc(C#N)cc(-c2n[nH]c3ccc(O[C@H](C)c4c(C)cnnc4C)cc23)c1 [Example 75, 3-[5-[(1R)-1-(3,5-dimethylpyridazin-4-yl)ethoxy]-1H-indazol-3-yl]-5-(2-methoxyethoxy)-benzonitrile]
250 to 1000 nM	> 1000 nM	0.1 to 100 nM	100 to 250 nM	COc1cc(-c2n[nH]c3ccc(O[C@H](C)c4c(C)cnnc4C)cc23)cc(C#N)c1OC [Example 76, 5-[5-[(1R)-1-(3,5-dimethylpyridazin-4-yl)ethoxy]-1H-indazol-3-yl]-2,3-dimethoxy-benzonitrile]
250 to 1000 nM	100 to 250 nM	0.1 to 100 nM	0.1 to 100 nM	Cc1cc(-c2n[nH]c3ccc(O[C@H](C)c4c(C)cnnc4C)cc23)cc(C#N)c1F [Example 77, 5-[5-[(1R)-1-(3,5-dimethylpyridazin-4-yl)ethoxy]-1H-indazol-3-yl]-2-fluoro-3-methyl-benzonitrile]
100 to 250 nM	0.1 to 100 nM	0.1 to 100 nM	0.1 to 100 nM	COc1c(C)cc(-c2n[nH]c3ccc(O[C@H](C)c4c(C)cnnc4C)cc23)cc1C#N [Example 80, 5-[5-[(1R)-1-(3,5-dimethylpyridazin-4-yl)ethoxy]-1H-indazol-3-yl]-2-methoxy-3-methyl-benzonitrile]
250 to 1000 nM	> 1000 nM	0.1 to 100 nM	250 to 1000 nM	Cc1cnnc(C)c1[C@@H](C)Oc1ccc2[nH]nc(-c3cc(C#N)cc(C#N)c3)c2c1 [Example 83, 5-[5-[(1R)-1-(3,5-dimethylpyridazin-4-yl)ethoxy]-1H-indazol-3-yl]benzene-1,3-dicarbonitrile]
> 1000 nM	> 1000 nM	0.1 to 100 nM	250 to 1000 nM	COc1c(C#N)cc(-c2n[nH]c3ccc(O[C@H](C)c4c(C)cnnc4C)cc23)cc1C#N [Example 85, 5-[5-[(1R)-1-(3,5-dimethylpyridazin-4-yl)ethoxy]-1H-indazol-3-yl]-2-methoxy-benzene-1,3-dicarbonitrile]
